One block for each compound: values may come before it.
Columns and labels:
[1] = target: ROCK-II (h, amino acids 11-552) (Homo sapiens (Human), UniProt O75116); assay: ROCK-II (h) inhibition assay; type: biochemical; conditions: [γ-32P-ATP] filter assay, 40 minutes at room temperature, read-out: ROCK2 IC50
Procedure: ROCK-II (h) Inhibition Assay:
In a final reaction volume of 25 μL, ROCK-II (h, amino acids 11-552) (5-10 mU) was incubated with 50 mM Tris pH 7.5, 0.1 mM EGTA, 30 μM […], 10 mM magnesium acetate and [γ-^32P-ATP] (specific activity approx. 500 cpm/pmol, concentration as required). The reaction was initiated by the addition of the MgATP mix. After incubation for 40 minutes at room temperature, the reaction was stopped by the addition of 5 μL of a 3% phosphoric acid solution. 10 μL of the reaction was then spotted onto a P30 filter-mat and washed three times for 5 minutes in 75 mM phosphoric acid and once in methanol prior to drying and scintillation counting.

blood pressure = conditions: spontaneously hypertensive, renal hypertensive and deoxycortisone acetate salt hypertensive rats; cited from earlier work
neointimal formation = conditions: rats; cited from earlier work
ROCK = conditions: competition with intracellular micromolar ATP; cited from earlier work
[2] = test system: ventricular hypertrophy and function; conditions: Dahl salt-sensitive rats; cited from earlier work
coronary stenosis = conditions: porcine, long term treatment; cited from earlier work
[3] = test system: infarct size and neurologic deficit; conditions: rat stroke model; cited from earlier work

Chain of ROCK-II (h, amino acids 11-552) (O75116 11-552): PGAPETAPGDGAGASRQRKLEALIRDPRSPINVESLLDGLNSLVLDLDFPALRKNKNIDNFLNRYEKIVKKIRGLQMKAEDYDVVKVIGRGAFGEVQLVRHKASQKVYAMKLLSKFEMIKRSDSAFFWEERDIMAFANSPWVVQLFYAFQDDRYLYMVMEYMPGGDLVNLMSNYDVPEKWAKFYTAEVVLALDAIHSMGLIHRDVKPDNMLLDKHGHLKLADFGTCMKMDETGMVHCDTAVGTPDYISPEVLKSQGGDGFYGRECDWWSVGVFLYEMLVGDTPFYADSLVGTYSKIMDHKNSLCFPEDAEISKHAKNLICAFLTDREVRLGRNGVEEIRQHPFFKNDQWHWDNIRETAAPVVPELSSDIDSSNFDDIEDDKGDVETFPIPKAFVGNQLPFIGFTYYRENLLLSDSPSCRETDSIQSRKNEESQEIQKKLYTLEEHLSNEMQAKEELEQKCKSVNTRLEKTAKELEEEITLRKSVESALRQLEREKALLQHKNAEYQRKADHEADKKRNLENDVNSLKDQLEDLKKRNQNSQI

IC50 [1]: > 10000 nM
Compound: C[C@@]1(Cc2ccc(-c3ccncc3)cc2)NC(=O)c2cc(Cl)ccc2NC1=O [Compound 2, (S)-7-chloro-3-methyl-3-(4-(pyridin-4-yl)benzyl)-3,4-dihydro-1H-benzo[e][1,4]diazepine-2,5-dione]

IC50 [1]: 1000 nM
Compound: CN1C(=O)[C@@H](Cc2ccc(-c3ccncc3)cc2)NC(=O)c2cccc(Cl)c21 [Compound 5, (R)-9-chloro-1-methyl-3-(4-(pyridin-4-yl)benzyl)-3,4-dihydro-1H-benzo[e][1,4]diazepine-2,5-dione]

Compound: C[C@@H](N)[C@H]1CC[C@H](C(=O)Nc2ccncc2)CC1 [Compound Y-27632, Y-27632]
effect on blood pressure (blood pressure): significantly decrease blood pressure | effect on neointimal formation (neointimal formation): inhibited neointimal formation | decrease in activity in cellular assays as compared to in vitro activities (ROCK): 100-1,000 fold | effect on ventricular hypertrophy and function [2]: improve ventricular hypertrophy and function

Compound: O=S(=O)(c1cccc2cnccc12)N1CCCNCC1 [fasudil]
effect on coronary stenosis (coronary stenosis): progressively reduce coronary stenosis | effect on infarct size and neurologic deficit [3]: reduce both the infarct size and neurologic deficit

From patent US9849138B2, “1,4-benzodiazepone-2,5-diones and related compounds with therapeutic properties” (The Regents of the University of Michigan, priority 2009, dated 2017)
